Like-named read-outs stand apart in the source and are kept apart here.
Target: Human LDHA (Homo sapiens (Human), UniProt P00338)
Assay: human LDHA primary biochemical assay (resazurin/diaphorase coupled, fluorescence)
Excerpt: Test compounds were placed in a Greiner Bio-One (Monroe, N.C.) 1536-well black solid bottom assay plate. 200 millimolar (mM) Tris HCl, pH 7.4, 100 micromolar […] EDTA and 0.01% TWEEN-20™, final concentration, was used as the assay buffer. The LDHA reagent was 2 nanomolar (nM) Human LDHA (Meridian Life Science, Inc., Memphis, Tenn.), final concentration, in assay buffer.

[1] = LDHA inhibitory activity, assay of Example 1, activity level classes
[2] = read-out: Inhibitory activity IC50

Row | SMILES | IC50 [1] | IC50 [2]
1 | Nc1c(Cc2ccc(S(N)(=O)=O)cc2)c(-c2ccccc2)nn1-c1nc(C(F)(F)F)cs1 [Compound 137, 4-((5-amino-3-phenyl-1-(4-(trifluoromethyl)thiazol-2-yl)-1H-pyrazol-4-yl)methyl)benzenesulfonamide] | > 57000 nM | –
2 | O=C(O)c1csc(-n2cc(CNS(=O)(=O)N3CCNCC3)c(-c3ccccc3)n2)n1 [Compound 138, 2-(3-phenyl-4-((piperazine-1-sulfonamido)methyl)-1H-pyrazol-1-yl)thiazole-4-carboxylic acid] | > 57000 nM | –
3 | NS(=O)(=O)c1ccc(NCc2cn(-c3nc(C(=O)O)cs3)nc2-c2ccccc2)cc1 [Compound 139, 2-(3-phenyl-4-(((4-sulfamoylphenyl)amino)methyl)-1H-pyrazol-1-yl)thiazole-4-carboxylic acid] | > 57000 nM | –
4 | CCOC(=O)c1ccc(-n2nc(-c3ccccc3)c(Cc3ccc(S(N)(=O)=O)cc3)c2N)nn1 [Compound 140, ethyl 6-(5-amino-3-phenyl-4-(4-sulfamoylbenzyl)-1H-pyrazol-1-yl)pyridazine-3-carboxylate] | > 57000 nM | –
5 | NS(=O)(=O)c1ccc(CNc2cn(-c3nc(C(=O)O)cs3)nc2-c2ccccc2)cc1 [Compound 142, 2-(3-phenyl-4-((4-sulfamoylbenzyl)amino)-1H-pyrazol-1-yl)thiazole-4-carboxylic acid] | > 57000 nM | –
6 | Cn1ncc(C(=O)n2nc(-c3ccccc3)c(Cc3ccc(S(N)(=O)=O)cc3)c2N)c1N [Compound 143, 4-((5-amino-1-(5-amino-1-methyl-1H-pyrazole-4-carbonyl)-3-phenyl-1H-pyrazol-4-yl)methyl)benzenesulfonamide] | > 57000 nM | –
7 | Nc1c(Cc2ccc(S(N)(=O)=O)cc2)c(-c2ccccc2)nn1-c1cccc(C(=O)O)n1 [Compound 144, 6-(5-amino-3-phenyl-4-(4-sulfamoylbenzyl)-1H-pyrazol-1-yl)picolinic acid] | – | 1000 to 57000 nM
8 | Nc1c(Cc2ccc(S(N)(=O)=O)cc2)c(-c2ccccc2)nn1-c1cc(C(=O)O)ccn1 [Compound 145, 2-(5-amino-3-phenyl-4-(4-sulfamoylbenzyl)-1H-pyrazol-1-yl)isonicotinic acid] | > 57000 nM | –
9 | Cc1oc(=O)oc1COC(=O)c1csc(-n2cc(Cc3ccc(S(N)(=O)=O)cc3)c(-c3ccccc3)n2)n1 [Compound 149, (5-methyl-2-oxo-1,3-dioxol-4-yl)methyl 2-(3-phenyl-4-(4-sulfamoylbenzyl)-1H-pyrazol-1-yl)thiazole-4-carboxylate] | – | 100 to 1000 nM
10 | Nc1c(Cc2ccc(S(N)(=O)=O)cc2)c(-c2ccccc2)nn1C(=O)c1cccc2cc[nH]c12 [Compound 150, 4-((5-ammo-1-(1H-indole-7-carbonyl)-3-phenyl-1H-pyrazol-4-yl)methyl)benzenesulfonamide] | > 57000 nM | –
11 | CCOC(=O)c1coc(-n2nc(-c3ccccc3)c(Cc3ccc(S(N)(=O)=O)cc3)c2N)n1 [Compound 151, ethyl 2-(5-amino-3-phenyl-4-(4-sulfamoylbenzyl)-1H-pyrazol-1-yl)oxazole-4-carboxylate] | – | 1000 to 57000 nM
12 | Nc1c(Cc2ccc(S(N)(=O)=O)cc2)c(-c2ccccc2)nn1-c1nccc(O)n1 [Compound 152, 4-((5-amino-1-(4-hydroxypyrimidin-2-yl)-3-phenyl-1H-pyrazol-4-yl)methyl)benzenesulfonamide] | > 57000 nM | –
13 | Nc1c(Cc2ccc(S(N)(=O)=O)cc2)c(-c2ccccc2)nn1-c1nc(C(=O)O)co1 [Compound 153, 2-(5-amino-3-phenyl-4-(4-sulfamoylbenzyl)-1H-pyrazol-1-yl)oxazole-4-carboxylic acid] | – | 100 to 1000 nM
14 | NS(=O)(=O)c1ccc(Cc2cn(-c3nc(C(O)C(F)(F)F)cs3)nc2-c2ccccc2)cc1 (stereo not drawn) [Compound 154, 4-((3-phenyl-1-(4-(2,2,2-trifluoro-1-hydroxyethyl)thiazol-2-yl)-1H-pyrazol-4-yl)methyl)benzenesulfonamide] | – | 100 to 1000 nM
15 | NS(=O)(=O)c1ccc(Cc2c(-c3ccccc3)nn(-c3nc(C(=O)O)cs3)c2-c2ccccc2)cc1 [Compound 155, 2-(3,5-diphenyl-4-(4-sulfamoylbenzyl)-1H-pyrazol-1-yl)thiazole-4-carboxylic acid] | – | < 100 nM
16 | NS(=O)(=O)c1ccc(Cc2c(-c3ccccc3)nn(-c3nc(C(=O)O)cs3)c2-c2ccncc2)cc1 [Compound 156, 2-(3-phenyl-5-(pyridin-4-yl)-4-(4-sulfamoylbenzyl)-1H-pyrazol-1-yl)thiazole-4-carboxylic acid] | – | 1000 to 57000 nM
17 | CC(C)c1nn(-c2nc(C(=O)O)cs2)c(-c2ccccc2)c1Cc1ccc(S(N)(=O)=O)cc1 [Compound 158, 2-(3-isopropyl-5-phenyl-4-(4-sulfamoylbenzyl)-1H-pyrazol-1-yl)thiazole-4-carboxylic acid] | – | 1000 to 57000 nM
18 | NS(=O)(=O)c1ccc(Oc2c(-c3ccccc3)nn(-c3nc(C(=O)O)cs3)c2C2CC2)cc1 [Compound 166, 2-(5-cyclopropyl-3-phenyl-4-(4-sulfamoylphenoxy)-1H-pyrazol-1-yl)thiazole-4-carboxylic acid] | < 100 nM | –
19 | NS(=O)(=O)c1ccc(Oc2c(C3CCCC3)nn(-c3nc(C(=O)O)cs3)c2-c2ccccc2)cc1 [Compound 170, 2-(3-cyclopentyl-5-phenyl-4-(4-sulfamoylphenoxy)-1H-pyrazol-1-yl)thiazole-4-carboxylic acid] | – | 1000 to 57000 nM
20 | NS(=O)(=O)c1ccc(Oc2c(C3CCCC3)nn(-c3nc(C(=O)O)cs3)c2-c2ccccc2)cc1 [Compound 174, 2-(3-cyclopentyl-5-phenyl-4-(4-sulfamoylphenoxy)-1H-pyrazol-1-yl)thiazole-4-carboxylic acid] | 1000 to 57000 nM | –

More lines, now with the values ahead:

Row | IC50 [1] | IC50 [2] | SMILES
21 | – | 100 to 1000 nM | CC(C)c1c(Cc2ccc(S(N)(=O)=O)cc2)c(-c2ccccc2)nn1-c1nc(C(=O)O)cs1 [Compound 159, 2-(5-isopropyl-3-phenyl-4-(4-sulfamoylbenzyl)-1H-pyrazol-1-yl)thiazole-4-carboxylic acid]
22 | > 57000 nM | – | NS(=O)(=O)c1ccc(Nc2c[nH]nc2-c2cccc(-c3ccccc3)c2)cc1 [Compound 161]
23 | – | 1000 to 57000 nM | CCOC(=O)c1csc(-n2cc(Nc3ccc(S(N)(=O)=O)cc3)c(-c3cccc(-c4ccccc4)c3)n2)n1 [Compound 162, ethyl 2-(3-([1,1′-biphenyl]-3-yl)-4-((4-sulfamoylphenyl)amino)-1H-pyrazol-1-yl)thiazole-4-carboxylate]
24 | > 57000 nM | – | CCOC(=O)c1csc(-n2nc(C3CC3)c(Oc3ccc(S(N)(=O)=O)cc3)c2-c2ccccc2)n1 [Compound 163, ethyl 2-(3-cyclopropyl-5-phenyl-4-(4-sulfamoylphenoxy)-1H-pyrazol-1-yl)thiazole-4-carboxylate]
25 | – | 1000 to 57000 nM | CCOC(=O)c1csc(-n2nc(-c3ccccc3)c(Oc3ccc(S(N)(=O)=O)cc3)c2C2CC2)n1 [Compound 164, ethyl 2-(5-cyclopropyl-3-phenyl-4-(4-sulfamoylphenoxy)-1H-pyrazol-1-yl)thiazole-4-carboxylate]
26 | – | 1000 to 57000 nM | NS(=O)(=O)c1ccc(Oc2c(C3CC3)nn(-c3nc(C(=O)O)cs3)c2-c2ccccc2)cc1 [Compound 165]
27 | < 100 nM | – | C=Cc1c(Cc2ccc(S(N)(=O)=O)cc2)c(-c2ccccc2)nn1-c1nc(C(=O)O)cs1 [Compound 167, 2-(3-phenyl-4-(4-sulfamoylbenzyl)-5-vinyl-1H-pyrazol-1-yl)thiazole-4-carboxylic acid]
28 | > 57000 nM | – | CCOC(=O)c1csc(-n2nc(C3CCCC3)c(Oc3ccc(S(N)(=O)=O)cc3)c2-c2ccccc2)n1 [Compound 168, ethyl 2-(3-cyclopentyl-5-phenyl-4-(4-sulfamoylphenoxy)-1H-pyrazol-1-yl)thiazole-4-carboxylate]
29 | > 57000 nM | – | CCOC(=O)c1csc(-n2nc(-c3ccccc3)c(Oc3ccc(S(N)(=O)=O)cc3)c2C2CCCC2)n1 [Compound 169, ethyl 2-(5-cyclopentyl-3-phenyl-4-(4-sulfamoylphenoxy)-1H-pyrazol-1-yl)thiazole-4-carboxylate]
30 | – | 100 to 1000 nM | NS(=O)(=O)c1ccc(Oc2c(-c3ccccc3)nn(-c3nc(C(=O)O)cs3)c2C2CCCC2)cc1 [Compound 171, 2-(5-cyclopentyl-3-phenyl-4-(4-sulfamoylphenoxy)-1H-pyrazol-1-yl)thiazole-4-carboxylic acid]
31 | – | 1000 to 57000 nM | NS(=O)(=O)c1ccc(Oc2c(C3CCCCC3)nn(-c3nc(C(=O)O)cs3)c2-c2ccccc2)cc1 [Compound 172, 2-(3-cyclohexyl-5-phenyl-4-(4-sulfamoylphenoxy)-1H-pyrazol-1-yl)thiazole-4-carboxylic acid]
32 | – | 1000 to 57000 nM | NS(=O)(=O)c1ccc(Oc2c(-c3ccccc3)nn(-c3nc(C(=O)O)cs3)c2C2CCCCC2)cc1 [Compound 173, 2-(5-cyclohexyl-3-phenyl-4-(4-sulfamoylphenoxy)-1H-pyrazol-1-yl)thiazole-4-carboxylic acid]
33 | – | 100 to 1000 nM | NS(=O)(=O)c1ccc(Cc2c(-c3ccccc3)nn(-c3nc(C(=O)O)cs3)c2C2CCCC2)cc1 [Compound 175, 2-(5-cyclopentyl-3-phenyl-4-(4-sulfamoylbenzyl)-1H-pyrazol-1-yl)thiazole-4-carboxylic acid]
34 | – | 1000 to 57000 nM | NS(=O)(=O)c1ccc(Cc2c(C3CCCCC3)nn(-c3nc(C(=O)O)cs3)c2-c2ccccc2)cc1 [Compound 176, 2-(3-cyclohexyl-5-phenyl-4-(4-sulfamoylbenzyl)-1H-pyrazol-1-yl)thiazole-4-carboxylic acid]
35 | – | 1000 to 57000 nM | NS(=O)(=O)c1ccc(Cc2c(-c3ccccc3)nn(-c3nc(C(=O)O)cs3)c2C2CCCCC2)cc1 [Compound 177, 2-(5-cyclohexyl-3-phenyl-4-(4-sulfamoylbenzyl)-1H-pyrazol-1-yl)thiazole-4-carboxylic acid]
36 | – | 1000 to 57000 nM | NS(=O)(=O)c1ccc(Cc2c(-c3ccccc3)nn(-c3nc(C(=O)O)cs3)c2C2CO2)cc1 (stereo not drawn) [Compound 178, 2-(5-(oxiran-2-yl)-3-phenyl-4-(4-sulfamoylbenzyl)-1H-pyrazol-1-yl)thiazole-4-carboxylic acid]

Source: patent US10961200B2, “Small molecule inhibitors of lactate dehydrogenase and methods of use thereof” (THE UNITED STATES OF AMERICA, AS REPRESENTED BY THE …, priority 2014, dated 2021)
